Data as given in paper PMC12133982, “Predominant T-cell epitopes of SARS-CoV-2 restricted by multiple prevalent HLA-B and HLA-C allotypes in Northeast Asia” (Frontiers in Immunology, 2025).
Peptide text beside a SMILES is read from it.

How the values were obtained:
[1] = target: HLA-C0602 (Homo sapiens, UniProt P10321, A176E/A330V/C350S/L171W/L180W/L218V/M285V/M309V/M331V/N104K/P208H/Q277E/Q291P/R121W/S101N/S123Y/S297R/T329A/T363A/V319A/V328M); assay: Competitive peptide binding assay, CIR-C0602
[2] = target: HLA-C0102 (Homo sapiens, UniProt P10321, A176E/A330V/A35S/A97T/C350S/D114A/D33F/L171W/L180R/L218V/M285V/M309V/M331V/P208H/Q277E/Q291P/R121W/R243W/R30K/S123C/S140Y/S297R/T329A/T363A/V272M/V319A); assay: Competitive peptide binding assay, CIR-C0102
Procedure: (§1) Then, competitive peptide binding assays were performed.

[3] = target: HLA-B4601 (Homo sapiens, UniProt P01889, A329T/A93R/C349S/D201E/E100V/E187L/E204Q/E69M/E70A/I90K/K202T/N87E/R155S/R180W/S121R/S35A/S48A/V306I/V36M/Y140S); assay: Competitive peptide binding assay, CIR-B4601; conditions: for IC50: HMy2.CIR-B4601 cells, reference Cy5-[…], class from inhibition at 5 and 15 μM, flow cytometry MFI, read-out: Binding affinity with HLA-B4601
Procedure: as §1

[4] = target: HLA-B1502 (Homo sapiens, UniProt P01889, A329T/A93T/A95T/C349S/D201E/D98Y/E187L/E204Q/E69M/E70A/H137Y/K202T/L119I/Q94N/R155S/R180L/S121R/S35A/S48A/T118I/V306I/V36M/Y140S/Y91S); assay: Competitive peptide binding assay, CIR-B1502; conditions: HMy2.CIR-B1502 cells, reference Cy5-[…], class from inhibition at 5 and 15 μM, flow cytometry MFI; read-out: Binding affinity with HLA-B1502
Procedure: as §1

[5] = target: HLA-B1501 (Homo sapiens, UniProt P01889, A329T/A93T/A95T/C349S/D201E/D98Y/E187L/E204Q/E69M/E70A/K202T/N87E/Q94N/R155S/R180W/S121R/S35A/S48A/V306I/V36M/Y140S/Y91S); assay: Competitive peptide binding assay, CIR-B1501; conditions: HMy2.CIR-B1501 cells, reference Cy5-[…], class from inhibition at 5 and 15 μM, flow cytometry MFI; read-out: Binding affinity with HLA-B1501
Procedure: as §1

[6] = target: HLA-B5801 (Homo sapiens, UniProt P01889, A329T/C349S/D201E/D98Y/E176V/E187L/E204Q/E69T/G107R/I218V/I90N/K202T/L105A/L119I/N104I/N87E/Q89R/Q94S/R106L/R155S/R180L/R86G/S101N/S121R/S35A/S48A/T118I/V127L/V306I/V36M/Y140S/Y91M); assay: Competitive peptide binding assay, CIR-B5801; conditions: HMy2.CIR-B5801 cells, reference Cy5-[…], class from inhibition at 5 and 15 μM, flow cytometry MFI; read-out: Binding affinity with HLA-B5801
Procedure: as §1

[7] = target: HLA-B3501 (Homo sapiens, UniProt P01889, A329T/A93T/A95T/C349S/D201E/D98Y/E176V/E187L/E204Q/E69T/I218V/K202T/L119I/Q94N/R155S/R180L/S121R/S35A/S48A/T118I/V127L/V306I/V36M/Y140S/Y91F); assay: Competitive peptide binding assay, CIR-B3501; conditions: HMy2.CIR-B3501 cells, reference Cy5-[…], class from inhibition at 5 and 15 μM, flow cytometry MFI; read-out: Binding affinity with HLA-B3501
Procedure: as §1

[8] = read-out: Inhibition % of Cy5-reference peptide binding

`CC[C@H](C)[C@H](N)C(=O)N[C@H](C(=O)N[C@@H](CC(=O)O)C(=O)N[C@@H](C)C(=O)N[C@H](C(=O)N[C@@H](CC(=O)O)C(=O)N[C@@H](CS)C(=O)N[C@@H](C)C(=O)N[C@@H](CC(C)C)C(=O)O)C(C)C)[C@@H](C)O` [Epitope M161, ITDAVDCAL] (H-ITDAVDCAL-OH; N-terminus and C-terminus assumed) was tested, and the IC50 [1] was > 15 µM.

In the case of `CC(C)[C@H](NC(=O)CNC(=O)[C@H](CCC(=O)O)NC(=O)[C@H](CCCNC(=N)N)NC(=O)[C@@H]1CCCN1C(=O)[C@H](Cc1ccccc1)NC(=O)[C@H](Cc1c[nH]cn1)NC(=O)[C@H](C)N)C(=O)N[C@@H](Cc1ccccc1)C(=O)O` [Epitope M157] (H-AHFPREGVF-OH; N-terminus and C-terminus assumed), the IC50 [1] is reported as > 15 µM.

For `CC(C)C[C@H](NC(=O)[C@H](C)NC(=O)[C@@H](NC(=O)[C@@H](N)CC(C)C)[C@@H](C)O)C(=O)N[C@@H](CCCNC(=N)N)C(=O)N[C@@H](CC(C)C)C(=O)N[C@@H](CS)C(=O)N[C@@H](C)C(=O)N[C@@H](Cc1ccc(O)cc1)C(=O)O` [Epitope M51] (H-LTALRLCAY-OH; N-terminus and C-terminus assumed), the IC50 [1] was < 5 µM, the IC50 ([2]; HMy2.CIR-C0102 cells, reference Cy5-[…], class from inhibition at 5 and 15 μM, flow cytometry MFI, read-out: Binding affinity with HLA-C0102) was 5 to 15 µM and the inhibition at 5 µM [2, 8] was 42.9%. It also gave an inhibition at 15 µM [2, 8] of 77.6%.

`CC[C@H](C)[C@H](NC(=O)CNC(=O)[C@H](CC(=O)O)NC(=O)[C@H](CCCCN)NC(=O)[C@H](CC(N)=O)NC(=O)[C@H](C)NC(=O)CNC(=O)[C@H](Cc1ccc(O)cc1)NC(=O)[C@@H]1CCCN1C(=O)[C@@H](N)CC(C)C)C(=O)O` [Epitope Y273] (H-LPYGANKDGI-OH; N-terminus and C-terminus assumed) was tested, and the IC50 [3] was > 15 µM, the inhibition at 5 µM ([3]; read-out: Inhibition % of Cy5-reference peptide binding, CIR-B4601, 5μM peptide) was 11.6% and the inhibition at 15 µM ([3]; read-out: Inhibition % of Cy5-reference peptide binding, CIR-B4601, 15μM peptide) was 31%. For the same compound, the IC50 [4] was 5 to 15 µM, the IC50 [5] was > 15 µM and the IC50 [6] was > 15 µM.

With `CC(C)[C@H](NC(=O)[C@H](Cc1ccc(O)cc1)NC(=O)[C@H](CCC(=O)O)NC(=O)[C@H](Cc1ccccc1)NC(=O)[C@@H](N)[C@@H](C)O)C(=O)N[C@@H](CO)C(=O)N[C@@H](CCC(N)=O)C(=O)N1CCC[C@H]1C(=O)N[C@@H](Cc1ccccc1)C(=O)O` [Epitope M180] (H-TFEYVSQPF-OH; N-terminus and C-terminus assumed) the IC50 [1] was > 15 µM.

In the case of `CC(C)C[C@H](NC(=O)[C@@H](NC(=O)[C@@H]1CCCN1C(=O)[C@H](CC(N)=O)NC(=O)[C@H](CC(=O)O)NC(=O)[C@H](Cc1ccccc1)NC(=O)[C@H](CCCNC(=N)N)NC(=O)[C@@H](N)CCCCN)C(C)C)C(=O)N1CCC[C@H]1C(=O)N[C@@H](Cc1ccccc1)C(=O)O` [Epitope M125] (H-KRFDNPVLPF-OH; N-terminus and C-terminus assumed), the IC50 [1] is reported as 5 to 15 µM.

`CC[C@H](C)[C@H](NC(=O)[C@H](C)NC(=O)[C@@H](N)CC(C)C)C(=O)N[C@@H](CC(C)C)C(=O)N[C@H](C(=O)N[C@@H](C)C(=O)N[C@@H](CC(C)C)C(=O)N[C@@H](CCCNC(=N)N)C(=O)N[C@@H](CC(C)C)C(=O)O)[C@@H](C)O` [Epitope Y7] (H-LAILTALRL-OH; N-terminus and C-terminus assumed) was tested, and the IC50 [3] was > 15 µM and the IC50 [7] was 5 to 15 µM.

`CC(C)C[C@H](NC(=O)[C@@H](NC(=O)[C@H](CCCNC(=N)N)NC(=O)[C@H](CO)NC(=O)[C@@H](NC(=O)[C@H](C)NC(=O)[C@@H](N)C(C)C)[C@@H](C)O)[C@@H](C)O)C(=O)N[C@@H](CO)C(=O)N[C@@H](Cc1ccc(O)cc1)C(=O)O` [Epitope Y158] (H-VATSRTLSY-OH; N-terminus and C-terminus assumed) was tested, and the IC50 [4] was 5 to 15 µM, the IC50 [7] was 5 to 15 µM and the IC50 [5] was < 5 µM. The IC50 [6] was > 15 µM.

In the case of `CC(C)[C@H](NC(=O)CNC(=O)[C@H](Cc1c[nH]cn1)NC(=O)[C@@H]1CCCN1C(=O)[C@H](C)NC(=O)[C@H](CO)NC(=O)[C@@H](N)CCC(N)=O)C(=O)N[C@H](C(=O)N[C@@H](Cc1ccccc1)C(=O)O)C(C)C` [Epitope Y146] (H-QSAPHGVVF-OH; N-terminus and C-terminus assumed), the IC50 [4] is reported as 5 to 15 µM, the IC50 [7] is reported as > 15 µM and the IC50 [5] is reported as < 5 µM.
